ChEMBL document CHEMBL1142021, “Aglycon specificity profiling of alpha-glucosidases using synthetic probes” (Bioorg Med Chem Lett, 2005)

Tests used:
Alpha-glucosidase = target: T1, Alpha-glucosidase (Apis mellifera, UniProt Q17058); test: Inhibition of family 13 alpha-glucosidase isoform I from honey bee at 1 umol/mL
T1 sequence (Q17058 whole entry): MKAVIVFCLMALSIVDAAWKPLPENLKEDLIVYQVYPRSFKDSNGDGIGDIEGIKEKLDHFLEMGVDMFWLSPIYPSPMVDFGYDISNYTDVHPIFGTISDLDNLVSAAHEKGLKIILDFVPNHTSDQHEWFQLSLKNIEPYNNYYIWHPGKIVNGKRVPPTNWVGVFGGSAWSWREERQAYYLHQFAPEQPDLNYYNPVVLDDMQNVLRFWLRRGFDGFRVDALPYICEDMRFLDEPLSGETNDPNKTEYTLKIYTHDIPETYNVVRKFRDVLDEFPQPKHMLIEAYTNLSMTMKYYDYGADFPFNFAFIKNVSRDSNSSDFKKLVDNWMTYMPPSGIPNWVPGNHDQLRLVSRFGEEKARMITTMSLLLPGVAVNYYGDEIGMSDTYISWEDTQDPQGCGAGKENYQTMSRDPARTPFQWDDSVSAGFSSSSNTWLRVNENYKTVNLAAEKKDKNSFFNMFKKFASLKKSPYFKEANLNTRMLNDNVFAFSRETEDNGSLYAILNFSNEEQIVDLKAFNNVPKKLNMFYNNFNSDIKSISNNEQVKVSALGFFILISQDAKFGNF

[1] = target: T2, Lysosomal alpha-mannosidase (Homo sapiens) (UniProt O00754); test: Inhibition of alpha-Mannosidase; settings: concentration not given here
T2 sequence (whole entry): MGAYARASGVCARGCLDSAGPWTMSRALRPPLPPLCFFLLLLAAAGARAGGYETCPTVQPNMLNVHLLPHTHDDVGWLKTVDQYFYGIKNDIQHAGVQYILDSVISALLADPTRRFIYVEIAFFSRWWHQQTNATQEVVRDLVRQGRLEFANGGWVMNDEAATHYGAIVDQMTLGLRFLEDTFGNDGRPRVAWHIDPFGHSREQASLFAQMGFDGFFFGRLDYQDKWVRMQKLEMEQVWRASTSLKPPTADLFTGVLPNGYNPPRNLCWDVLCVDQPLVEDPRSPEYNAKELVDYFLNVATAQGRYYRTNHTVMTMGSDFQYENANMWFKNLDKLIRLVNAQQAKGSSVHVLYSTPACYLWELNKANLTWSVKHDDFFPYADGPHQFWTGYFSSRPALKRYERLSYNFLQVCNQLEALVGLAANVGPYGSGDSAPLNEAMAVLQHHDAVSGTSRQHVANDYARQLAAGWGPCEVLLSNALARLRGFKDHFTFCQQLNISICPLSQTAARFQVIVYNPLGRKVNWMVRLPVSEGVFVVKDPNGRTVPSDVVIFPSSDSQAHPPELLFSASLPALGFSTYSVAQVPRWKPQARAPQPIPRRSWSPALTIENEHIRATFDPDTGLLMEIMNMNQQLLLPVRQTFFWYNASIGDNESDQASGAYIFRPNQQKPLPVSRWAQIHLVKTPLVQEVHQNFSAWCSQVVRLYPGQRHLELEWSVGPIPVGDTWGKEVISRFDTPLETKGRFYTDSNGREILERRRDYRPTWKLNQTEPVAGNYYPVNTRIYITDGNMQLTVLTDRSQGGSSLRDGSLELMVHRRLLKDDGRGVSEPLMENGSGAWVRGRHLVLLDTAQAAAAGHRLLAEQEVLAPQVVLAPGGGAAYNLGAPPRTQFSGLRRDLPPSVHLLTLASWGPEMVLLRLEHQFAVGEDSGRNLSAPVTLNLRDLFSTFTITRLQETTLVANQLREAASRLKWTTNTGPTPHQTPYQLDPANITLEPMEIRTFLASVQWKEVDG

| IC50 (Alpha-glucosidase) | inhibition [1] | SMILES |
| --- | --- | --- |
| 851 µM |  | O=C(CO)NCC1OC(CO)C(O)C(O)C1O (configuration not stated) |
|  | < 1% | O=C(CCCO)NCC1OC(CO)C(O)C(O)C1O (configuration not stated) |
